Test results from US10597388B2, “Pyridazinone herbicides” (FMC CORPORATION, priority 2014, dated 2020).

Assays:
Assay in all cases: Test E greenhouse herbicide test, pre- and postemergence
Type in all cases: in vivo
[1] = tested on: waterhemp (common waterhemp, Amaranthus rudis)
Outline: (§1)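 Seeds were sown in silt loam and sprayed preemergence with compound in a non-phytotoxic solvent mix containing surfactant; for postemergence, plants at 2 to 18 cm (1- to 4-leaf stage) in peat-based potting medium were sprayed with the same formulation. After 14 to 21 d in a greenhouse, injury was rated visually against controls (0–100).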

[2] = tested on: barnyardgrass (Echinochloa crus-galli)
Outline: as §1

[3] = tested on: foxtail, green (green foxtail, Setaria viridis); conditions: Preemergence
Outline: as §1

[4] = tested on: ragweed (common ragweed, Ambrosia elatior)
Outline: as §1

[5] = tested on: goosegrass (Eleusine indica); conditions: Preemergence
Outline: as §1

[6] = tested on: surinam grass (Brachiaria decumbens); conditions: Preemergence
Outline: as §1

[7] = tested on: sandbur (southem sandbur, Cenchrus echinatus)
Outline: as §1

[8] = tested on: johnsongrass (Sorghum halepense); conditions: Preemergence
Outline: as §1

[9] = tested on: corn (Zea mays)
Outline: as §1

[10] = tested on: pigweed, palmer (palmer pigweed, Amaranthus palmeri)
Outline: as §1

[11] = tested on: nightshade (eastern black nightshade, Solanum ptycanthum); conditions: Preemergence
Outline: as §1

[12] = tested on: nutsedge, yellow (yellow nutsedge, Cyperus esculentus); conditions: Preemergence
Outline: as §1

[13] = tested on: velvetleaf (Abutilon theophrasti); conditions: Preemergence
Outline: as §1

[14] = tested on: kochia (Kochia scoparia)
Outline: as §1

[15] = tested on: crabgrass, large (large crabgrass, Digitaria sanguinalis); conditions: Preemergence
Outline: as §1

[16] = tested on: Italian ryegrass (Lolium multiflorum)
Outline: as §1

[17] = tested on: crabgrass, Brazilian (Brazilian crabgrass, Digitaria horizontalis)
Outline: as §1

[18] = 62 g ai/ha, Postemergence, scale 0 to 100 (0 no effect, 100 complete control)
[19] = 62 g ai/ha, Preemergence, scale 0 to 100 (0 no effect, 100 complete control)
[20] = 125 g ai/ha, Postemergence, scale 0 to 100 (0 no effect, 100 complete control)
[21] = 125 g ai/ha, Preemergence, scale 0 to 100 (0 no effect, 100 complete control)
[22] = 250 g ai/ha, Postemergence, scale 0 to 100 (0 no effect, 100 complete control)
[23] = Postemergence, 31 g ai/ha, visual, scale 0 no effect to 100 complete control
[24] = Preemergence, 31 g ai/ha, scale 0 to 100, 0 no effect, 100 complete control
[25] = Preemergence, 250 g ai/ha, visual, scale 0 no effect to 100 complete control
[26] = Preemergence, 125 g ai/ha, visual, scale 0 no effect to 100 complete control
[27] = 62 g ai/ha, scale 0 to 100 (0 no effect, 100 complete control)
[28] = 31 g ai/ha, scale 0 to 100, 0 no effect, 100 complete control
[29] = 125 g ai/ha, visual, scale 0 no effect to 100 complete control
[30] = 250 g ai/ha, visual, scale 0 no effect to 100 complete control
[31] = 125 g ai/ha, scale 0 to 100 (0 no effect, 100 complete control)

## CC(=O)Oc1c(C)nn(C)c(=O)c1-c1c(C)sc2ccc(C)cc12 [Compound 25]
[1]; [18]
  Plant response rating, Waterhemp: 80
[1]; [19]
  Plant response rating, Waterhemp: 100
[1]; [20]
  Plant response rating, Waterhemp: 85
[1]; [21]
  Plant response rating, Waterhemp: 100
[1]; [22]
  Plant response rating, Waterhemp: 90
[1]; [23]
  Plant response rating, Waterhemp: 80
[1]; [24]
  Plant response rating, Waterhemp: 100
[1]; [25]
  Plant response rating, Waterhemp: 100
[2]; [18]
  Plant response rating, Barnyardgrass: 50
[2]; [19]
  Plant response rating, Barnyardgrass: 60
[2]; [20]
  Plant response rating, Barnyardgrass: 50
[2]; [22]
  Plant response rating, Barnyardgrass: 50
[2]; [23]
  Plant response rating, Barnyardgrass: 40
[2]; [24]
  Plant response rating, Barnyardgrass: 20
[2]; [26]
  Plant response rating, Barnyardgrass: 60
[2]; [25]
  Plant response rating, Barnyardgrass: 90
[3]; [27]
  Plant response rating, Foxtail, Green: 98
[3]; [28]
  Plant response rating, Foxtail, Green: 65
[3]; [29]
  Plant response rating, Foxtail, Green: 98
[3]; [30]
  Plant response rating, Foxtail, Green: 100
[4]; [18]
  Plant response rating, Ragweed: 90
[4]; [19]
  Plant response rating, Ragweed: 95
[4]; [20]
  Plant response rating, Ragweed: 90
[4]; [21]
  Plant response rating, Ragweed: 98
[4]; [22]
  Plant response rating, Ragweed: 95
[4]; [23]
  Plant response rating, Ragweed: 90
[4]; [24]
  Plant response rating, Ragweed: 75
[4]; [25]
  Plant response rating, Ragweed: 100
[5]; [27]
  Plant response rating, Goosegrass: 65
[5]; [28]
  Plant response rating, Goosegrass: 20
[5]; [29]
  Plant response rating, Goosegrass: 80
[5]; [30]
  Plant response rating, Goosegrass: 90
[6]; [27]
  Plant response rating, Surinam Grass: 80
[6]; [31]
  Plant response rating, Surinam Grass: 90
[6]; [28]
  Plant response rating, Surinam Grass: 65
[6]; [30]
  Plant response rating, Surinam Grass: 95
[7]; [18]
  Plant response rating, Sandbur: 60
[7]; [19]
  Plant response rating, Sandbur: 65
[7]; [20]
  Plant response rating, Sandbur: 70
[7]; [21]
  Plant response rating, Sandbur: 80
[7]; [22]
  Plant response rating, Sandbur: 75
[7]; [23]
  Plant response rating, Sandbur: 50
[7]; [24]
  Plant response rating, Sandbur: 35
[7]; [25]
  Plant response rating, Sandbur: 85
[8]; [27]
  Plant response rating, Johnsongrass: 60
[8]; [28]
  Plant response rating, Johnsongrass: 75
[8]; [29]
  Plant response rating, Johnsongrass: 80
[8]; [30]
  Plant response rating, Johnsongrass: 90
[9]; [18]
  Plant response rating, Corn: 20
[9]; [19]
  Plant response rating, Corn: 0
[9]; [20]
  Plant response rating, Corn: 20
[9]; [22]
  Plant response rating, Corn: 15
[9]; [23]
  Plant response rating, Corn: 10
[9]; [24]
  Plant response rating, Corn: 0
[9]; [26]
  Plant response rating, Corn: 0
[9]; [25]
  Plant response rating, Corn: 0
[10]; [18]
  Plant response rating, Pigweed, Palmer: 80
[10]; [19]
  Plant response rating, Pigweed, Palmer: 90
[10]; [20]
  Plant response rating, Pigweed, Palmer: 100
[10]; [21]
  Plant response rating, Pigweed, Palmer: 100
[10]; [22]
  Plant response rating, Pigweed, Palmer: 85
[10]; [23]
  Plant response rating, Pigweed, Palmer: 75
[10]; [24]
  Plant response rating, Pigweed, Palmer: 65
[10]; [25]
  Plant response rating, Pigweed, Palmer: 100
[11]; [27]
  Plant response rating, Nightshade: 80
[11]; [31]
  Plant response rating, Nightshade: 95
[11]; [28]
  Plant response rating, Nightshade: 90
[11]; [30]
  Plant response rating, Nightshade: 98
[12]; [27]
  Plant response rating, Nutsedge, Yellow: 20
[12]; [31]
  Plant response rating, Nutsedge, Yellow: 20
[12]; [28]
  Plant response rating, Nutsedge, Yellow: 0
[12]; [30]
  Plant response rating, Nutsedge, Yellow: 65
[13]; [27]
  Plant response rating, Velvetleaf: 100
[13]; [31]
  Plant response rating, Velvetleaf: 98
[13]; [28]
  Plant response rating, Velvetleaf: 60
[13]; [30]
  Plant response rating, Velvetleaf: 100
[14]; [18]
  Plant response rating, Kochia: 95
[14]; [19]
  Plant response rating, Kochia: 80
[14]; [20]
  Plant response rating, Kochia: 100
[14]; [22]
  Plant response rating, Kochia: 98
[14]; [23]
  Plant response rating, Kochia: 90
[14]; [24]
  Plant response rating, Kochia: 20
[14]; [26]
  Plant response rating, Kochia: 98
[14]; [25]
  Plant response rating, Kochia: 100
[15]; [27]
  Plant response rating, Crabgrass, Large: 15
[15]; [29]
  Plant response rating, Crabgrass, Large: 80
[15]; [30]
  Plant response rating, Crabgrass, Large: 85
[16]; [18]
  Plant response rating, Ryegrass, Italian: 80
[16]; [19]
  Plant response rating, Ryegrass, Italian: 95
[16]; [20]
  Plant response rating, Ryegrass, Italian: 85
[16]; [21]
  Plant response rating, Ryegrass, Italian: 98
[16]; [22]
  Plant response rating, Ryegrass, Italian: 90
[16]; [23]
  Plant response rating, Ryegrass, Italian: 75
[16]; [24]
  Plant response rating, Ryegrass, Italian: 95
[16]; [25]
  Plant response rating, Ryegrass, Italian: 100
[17]; [18]
  Plant response rating, Crabgrass, Brazil: 40
[17]; [19]
  Plant response rating, Crabgrass, Brazil: 90
[17]; [20]
  Plant response rating, Crabgrass, Brazil: 50
[17]; [22]
  Plant response rating, Crabgrass, Brazil: 50
[17]; [23]
  Plant response rating, Crabgrass, Brazil: 30
[17]; [24]
  Plant response rating, Crabgrass, Brazil: 75
[17]; [26]
  Plant response rating, Crabgrass, Brazil: 95
[17]; [25]
  Plant response rating, Crabgrass, Brazil: 95
